Results published in ChEMBL document CHEMBL6153031, “Impact of the hydrophilic-lipophilic balance of free-base and Zn(II) tricationic pyridiniumporphyrins and irradiation wavelength in PDT against the melanoma cell lines” (Eur J Med Chem, 2025).

Legend:
[1] = Drug uptake in human HDF cells at 1 uM measured at 4 degC after 6 hrs by fluorescence based analysis; assay type: ADME, cell-based
[2] = Drug uptake in human HDF cells at 1 uM measured at 37 degC after 6 hrs by fluorescence based analysis; assay type: ADME, cell-based
[3] = Drug uptake in cytoplasmic organelles in human HDF cells at 5 uM incubated for 6 hrs by DIOC6(3) dye based fluorescence microscopy; assay type: ADME, cell-based
[4] = Drug uptake in nucleus in human MeWo cells at 5 uM incubated for 6 hrs by DIOC6(3) dye based fluorescence microscopy; assay type: ADME, cell-based
[5] = Drug uptake in cytoplasmic organelles in human MeWo cells at 5 uM incubated for 6 hrs by DIOC6(3) dye based fluorescence microscopy; assay type: ADME, cell-based
[6] = Cytotoxicity against human HDF cells assessed as reduction in cell viability measured after 36 to 48 hrs by MTT assay; assay type: toxicity, cell-based
[7] = Drug uptake in human MeWo cells at 1 uM measured at 37 degC after 6 hrs by fluorescence based analysis; assay type: ADME, cell-based
[8] = Phototoxicity against human A-375 cells assessed as cell proliferation rate at 1 uM incubated for 6 hrs followed by irradiation for 30 mins with light at wavelength of 643 nm and measured after 36 to 48 hrs by MTT assay; assay type: functional; settings: A-375, light or radiation study, time 2550-3270 min, read-out: Activity
[9] = Phototoxicity against human A-375 cells assessed as cell proliferation rate at 1 uM incubated for 6 hrs followed by irradiation for 30 mins with light at wavelength of 606 nm and measured after 36 to 48 hrs by MTT assay; assay type: functional; settings: A-375, light or radiation study, time 2550-3270 min, read-out: Activity
[10] = Drug uptake in human MeWo cells at 1 uM measured at 4 degC after 6 hrs by fluorescence based analysis; assay type: ADME, cell-based
[11] = Cytotoxicity against human A-375 cells assessed as reduction in cell viability measured after 36 to 48 hrs by MTT assay; assay type: toxicity, cell-based
[12] = Phototoxicity against human MeWo cells assessed as reduction in cell viability incubated for 6 hrs followed by irradiation for 30 mins with light at wavelength of 606 nm and measured after 36 to 48 hrs by MTT assay; assay type: functional, cell-based; settings: light or radiation study
[13] = Phototoxicity against human A-375 cells assessed as reduction in cell viability incubated for 6 hrs followed by irradiation for 30 mins with light at wavelength of 606 nm and measured after 36 to 48 hrs by MTT assay; assay type: functional, cell-based; settings: A-375, light or radiation study
[14] = Drug uptake in nucleus in human HDF cells at 5 uM incubated for 6 hrs by DIOC6(3) dye based fluorescence microscopy; assay type: ADME, cell-based
[15] = Cytotoxicity against human HDF cells assessed as reduction in cell viability incubated for 6 hrs followed by irradiation for 30 mins with light at wavelength of 606 nm and measured after 36 to 48 hrs by MTT assay; assay type: toxicity, cell-based
[16] = Cytotoxicity against human HDF cells assessed as reduction in cell viability incubated for 6 hrs followed by irradiation for 30 mins with light at wavelength of 643 nm and measured after 36 to 48 hrs by MTT assay; assay type: toxicity, cell-based
[17] = Cytotoxicity against human MeWo cells assessed as reduction in cell viability measured after 36 to 48 hrs by MTT assay; assay type: toxicity, cell-based
[18] = Phototoxicity against human MeWo cells assessed as reduction in cell viability incubated for 6 hrs followed by irradiation for 30 mins with light at wavelength of 643 nm and measured after 36 to 48 hrs by MTT assay; assay type: functional, cell-based; settings: light or radiation study
[19] = Phototoxicity against human A-375 cells assessed as reduction in cell viability incubated for 6 hrs followed by irradiation for 30 mins with light at wavelength of 643 nm and measured after 36 to 48 hrs by MTT assay; assay type: functional, cell-based; settings: A-375, light or radiation study
[20] = Phototoxicity against human A-375 cells assessed as reduction in cell proliferation at 1 uM incubated for 6 hrs followed by irradiation for 30 mins with light at wavelength of 643 nm and measured after 36 to 48 hrs by MTT assay; assay type: functional; settings: A-375, light or radiation study, time 2550-3270 min
[21] = Cytotoxicity against human HDF cells assessed as reduction in cell proliferation at 1 uM incubated for 6 hrs followed by irradiation for 30 mins with light at wavelength of 643 nm and measured after 36 to 48 hrs by MTT assay; assay type: toxicity, cell-based; settings: time 2550-3270 min
[22] = Phototoxicity against human MeWo cells assessed as reduction in cell proliferation at 1 uM incubated for 6 hrs followed by irradiation for 30 mins with light at wavelength of 643 nm and measured after 36 to 48 hrs by MTT assay; assay type: functional; settings: light or radiation study, time 2550-3270 min
[23] = Phototoxicity against human MeWo cells assessed as cell proliferation rate at 1 uM incubated for 6 hrs followed by irradiation for 30 mins with light at wavelength of 643 nm and measured after 36 to 48 hrs by MTT assay; assay type: functional; settings: light or radiation study, time 2550-3270 min, read-out: Activity
[24] = Cytotoxicity against human HDF cells assessed as reduction in cell proliferation at 1 uM incubated for 6 hrs followed by irradiation for 30 mins with light at wavelength of 606 nm and measured after 36 to 48 hrs by MTT assay; assay type: toxicity, cell-based; settings: time 2550-3270 min
[25] = Phototoxicity against human A-375 cells assessed as reduction in cell proliferation at 1 uM incubated for 6 hrs followed by irradiation for 30 mins with light at wavelength of 606 nm and measured after 36 to 48 hrs by MTT assay; assay type: functional; settings: A-375, light or radiation study, time 2550-3270 min
[26] = Cytotoxicity against human HDF cells assessed as cell proliferation rate at 1 uM incubated for 6 hrs followed by irradiation for 30 mins with light at wavelength of 606 nm and measured after 36 to 48 hrs by MTT assay; assay type: toxicity, cell-based; settings: time 2550-3270 min, read-out: Activity
[27] = Phototoxicity against human MeWo cells assessed as cell proliferation rate at 1 uM incubated for 6 hrs followed by irradiation for 30 mins with light at wavelength of 606 nm and measured after 36 to 48 hrs by MTT assay; assay type: functional; settings: light or radiation study, time 2550-3270 min, read-out: Activity
[28] = Phototoxicity against human MeWo cells assessed as reduction in cell proliferation at 1 uM incubated for 6 hrs followed by irradiation for 30 mins with light at wavelength of 606 nm and measured after 36 to 48 hrs by MTT assay; assay type: functional; settings: light or radiation study, time 2550-3270 min
[29] = Cytotoxicity against human HDF cells assessed as cell proliferation rate at 1 uM incubated for 6 hrs followed by irradiation for 30 mins with light at wavelength of 643 nm and measured after 36 to 48 hrs by MTT assay; assay type: toxicity, cell-based; settings: time 2550-3270 min, read-out: Activity
[30] = (§1) Selectivity index, ratio of IC50 for cytotoxicity against human HDF cells incubated for 6 hrs followed by irradiation for 30 mins with light at wavelength of 606 nm and measured after 36 to 48 hrs to IC50 for phototoxicity against human A-375 cells incubated for 6 hrs followed by irradiation for 30 mins with light at wavelength of 606 nm and measured after 36 to 48 hrs; assay type: toxicity, cell-based; settings: HDF cells versus A-375 cells, read-out: Ratio IC50
[31] = as §1, with “MeWo” for “A-375”; assay type: toxicity, cell-based; settings: HDF cells versus MeWo cells, read-out: Ratio IC50
[32] = Drug uptake in human HDF cells at 1 uM measured after 6 hrs by fluorescence based analysis; assay type: ADME, cell-based
[33] = Drug uptake in human A-375 cells at 1 uM measured after 6 hrs by fluorescence based analysis; assay type: ADME, cell-based; settings: a-375, 6 h
[34] = Drug uptake in human MeWo cells at 1 uM measured after 6 hrs by fluorescence based analysis; assay type: ADME, cell-based
[35] = Drug uptake in human HDF cells at 1 uM measured per 10^3 cells after 24 hrs by fluorescence based analysis; assay type: ADME, cell-based

Drug uptake [1] | Drug uptake [2] | Drug uptake [3] | Drug uptake [4] | Drug uptake [5] | Drug uptake [7] | Drug uptake [10] | Drug uptake [14] | Compound | IC50 [6] [µM] | IC50 [11] [µM] | IC50 [12] [µM] | IC50 [13] [µM] | IC50 [15] [µM] | IC50 [16] [µM] | IC50 [17] [µM] | IC50 [18] [µM] | IC50 [19] [µM] | other results
Active | Active | Active | Not_active | Active | Active | Active | Not_active | CCCCCCCCCC(=O)Nc1ccc(-c2c3nc(c(-c4ccc[n+](C)c4)c4ccc([nH]4)c(-c4ccc[n+](C)c4)c4nc(c(-c5ccc[n+](C)c5)c5ccc2[nH]5)C=C4)C=C3)cc1.[Cl-].[Cl-].[Cl-] | > 100 | > 100 | 9.77 | 3.94 | 32.4 | 7.09 | > 100 | 7.7 | 0.91 | growth at 1 µM [8]: ~30%; growth at 1 µM [9]: > 80%
Active | Active |  |  |  | Active | Active |  | CC(=O)Nc1ccc(-c2c3nc(c(-c4ccc[n+](C)c4)c4ccc([nH]4)c(-c4ccc[n+](C)c4)c4nc(c(-c5ccc[n+](C)c5)c5ccc2[nH]5)C=C4)C=C3)cc1.[Cl-].[Cl-].[Cl-] | > 100 | > 100 | > 100 | > 100 | > 100 | > 100 | > 100 | > 100 | > 100 | 
 |  |  |  |  |  |  |  | CCCCCCCCCCCC(=O)Nc1ccc(-c2c3nc(c(-c4ccc[n+](C)c4)c4ccc([nH]4)c(-c4ccc[n+](C)c4)c4nc(c(-c5ccc[n+](C)c5)c5ccc2[nH]5)C=C4)C=C3)cc1 | > 100 | > 100 | 4.27 | 0.33 | 6.26 | 4.65 | > 100 | 2.36 | 0.29 | inhibition at 1 µM [20]: > 90%; inhibition at 1 µM [21]: < 20%; inhibition at 1 µM [22]: 40%
 | Active | Active | Not_active | Active | Active |  | Not_active | CCCCCCCCCCCCCC(=O)Nc1ccc(-c2c3nc(c(-c4ccc[n+](C)c4)c4ccc([nH]4)c(-c4ccc[n+](C)c4)c4nc(c(-c5ccc[n+](C)c5)c5ccc2[nH]5)C=C4)C=C3)cc1.[Cl-].[Cl-].[Cl-] | > 100 | > 100 | 1.44 | 0.31 | 4.6 | 0.78 | > 100 | 0.66 | 0.09 | growth at 1 µM [23]: 40%; inhibition at 1 µM [24]: 10%; inhibition at 1 µM [25]: 90%; viability at 1 µM [26]: > 80%; growth at 1 µM [27]: 60%; inhibition at 1 µM [28]: 50%; viability at 1 µM [29]: ~30%; selectivity ratio [30]: 14.8; selectivity ratio [31]: 3.2
 | Active |  |  |  | Active |  |  | CCCCCCCCCCCCCCCC(=O)Nc1ccc(-c2c3nc(c(-c4ccc[n+](C)c4)c4ccc([nH]4)c(-c4ccc[n+](C)c4)c4nc(c(-c5ccc[n+](C)c5)c5ccc2[nH]5)C=C4)C=C3)cc1.[Cl-].[Cl-].[Cl-] | > 100 | > 100 | 0.79 | 0.38 | 1.48 | 0.42 | > 100 | 0.56 | 0.1 | Drug uptake [35]: ~ 26 nM
Active | Active |  |  |  | Active | Active |  | CCCCCCCC(=O)Nc1ccc(-c2c3nc(c(-c4ccc[n+](C)c4)c4ccc([nH]4)c(-c4ccc[n+](C)c4)c4nc(c(-c5ccc[n+](C)c5)c5ccc2[nH]5)C=C4)C=C3)cc1.[Cl-].[Cl-].[Cl-] | > 100 | > 100 | 18.9 | 3.22 | 32 | 25.7 | > 100 | 8.31 | 2.5 | 

Compound | Drug uptake [1] | Drug uptake [2] | Drug uptake [3] | Drug uptake [4] | Drug uptake [5] | Drug uptake [7] | Drug uptake [10] | Drug uptake [14] | IC50 [6] [µM] | IC50 [11] [µM] | IC50 [12] [µM] | IC50 [13] [µM] | IC50 [15] [µM] | IC50 [16] [µM] | IC50 [17] [µM] | IC50 [18] [µM] | IC50 [19] [µM] | other results
CCCCCCCCCCCCCCCCCC(=O)Nc1ccc(-c2c3nc(c(-c4ccc[n+](C)c4)c4ccc([nH]4)c(-c4ccc[n+](C)c4)c4nc(c(-c5ccc[n+](C)c5)c5ccc2[nH]5)C=C4)C=C3)cc1.[Cl-].[Cl-].[Cl-] |  | Active | Active | Not_active | Active | Active |  | Not_active | > 100 | > 100 | 0.48 | 0.37 | 0.67 | 0.32 | > 100 | 0.35 | 0.09 | Drug uptake [32]: Active; Drug uptake [33]: Active; Drug uptake [34]: Active; Drug uptake [35]: ~ 95 nM
